This is an account of results in publication PMC4467156, “A new chemical inhibitor of angiogenesis and tumorigenesis that targets the VEGF signaling pathway upstream of Ras” (Oncotarget, 2015).

For one data set, the system named is src phosphorylation. The data set is described as follows: src phosphorylation in HUVECs. The format is cell-based, human. As to conditions: data not shown.
For another data set, the system named is HMEC-GFP cells. The data set is described as follows: Scratch wound closure assay, HMEC-GFP. As to conditions: Homo sapiens. The format is cell-based, human. From the text:
In order to adapt the endothelial scratch wounding assay to the constraints of high throughput screening, we decided to use an endothelial cell line rather than primary cultures for the sake of reproducibility. Since angiogenesis is triggered by capillary endothelial cells, we selected the HMEC-1 cell line which consists of human dermal microvascular endothelial cells stably expressing SV40 […] antigen. We infected this cell line with GFP-encoding retroviral particles and selected one clone (thereafter named HMEC-GFP) that presented a high level of fluorescence and a strong proliferation rate (doubling time in the presence of serum: 22 h). We controlled that GFP expression was stable over at least 50 passages and that these cells still expressed endothelial markers such as VE-cadherin and CD31. In a standard assay, HMEC-GFP cells were grown until confluence in 96-well plates in the presence of serum, scratched with the multi-tip dispenser of the HTS automat, gently rinsed twice to eliminate detached cells and cell debris that could liberate inflammatory and potentially angiogenic cytokines, and incubated for 24 h in the presence of serum and the compounds to be tested. Each well was photographed at time 0 h (after wounding) and 24 h under a motorized epifluorescence microscope and the digitized images were analyzed using Image J to determine the percentage of wound closure (Figure 1A, 1B). Under our standard conditions, the closure rate was 72 ± 4% in the positive controls and 27 ± 4.% in the negative controls.
Confluent cell monolayers were wounded with a plastic pipet tip, washed gently with phosphate buffer saline (PBS) and treated with complete media containing molecules, as indicated. Cells were placed at 37°C into the incubator and photographed at indicated times. Quantitation of closure of the monolayer was performed using the NIH Image J program (http://rsbweb.nih.gov/ij/). Results are expressed as percentage of wound closure at t = 24 h as compared to the initial wound at t = 0 h.

The test system of another data set is 3T3 cells. The data set is described as follows: Cell viability WST-1, 3T3. The format is cell-based. As to conditions: confluent 3T3, 24 h at 37°C. On the procedure:
Once they had reached confluency, cells were kept for 24 hours in medium supplemented with 0.5% FCS (LLC/2 and 3T3 cells) or 2.5% FCS (HUVEC and HMVEC-d cells), in the presence of COB223 at different concentrations. WST-1 assay (Roche Diagnostic, Meylan, France) was then performed according to the manufacturer's instructions.
On the technique in general: Tetrazolium dyes change colour on reduction, which living cells bring about.

For another data set, the system named is Raf phosphorylation. The data set is described as follows: Western blot, Raf phosphorylation in HUVEC. As to conditions: 10 ng/mL VEGF-A 15 min, 25 μM COB223. In kind it is cell-based, human. On the procedure: Figure 11 Effect of COB223 on mitogenic or oncogenic activation of the Ras /MEK/ERK signaling pathway (A) Serum-starved HUVEC cells were incubated for 15 min in the presence of 10 ng/mL VEGF-A and in the absence or the presence of 25 μM COB223. The phosphorylations of PLCγ on tyrosine 783, of Raf on serine 338 or on serine 259 and of ERK1/2 were then analyzed by Western blot analysis of the cell lysates as described in Material and Methods. Western blots for total PLCγ, Raf and ERK1/2 were used as loading controls. (B) MCF10A cells overexpressing an oncogenic version of Ras (MCF10A-RasG12V) were treated for the indicated periods of time by 25 μM COB223. Total ERK1/2 and phospho-ERK1/2 were then visualized by Western blotting of the cell extracts. Non-treated regular MCF10A cells were analyzed as a control (first lane). (C) CCL-39 fibroblasts expressing a constitutively active Raf in an estrogen-responsive manner were stimulated for 3 h with estradiol and treated for 15 or 30 min with 25 μM COB223. Total ERK1/2 and phospho-ERK1/2 were then visualized by Western blotting of the cell extracts. Non-treated cells were analyzed as a control (left lanes).
Serum-starved HUVEC cells were incubated for 15 min in the presence of either 10 ng/mL VEGF-A or 20 ng/mL FGF-2 and in the absence or the presence of indicated concentration of COB223. COB223 was incubated 15 min prior to stimulation. […]
In general terms: In western blotting, separated proteins are transferred to a membrane and probed.

The subject of data set [1] is neovascular response to FGF-2. The data set is described as follows: Mouse sponge angiogenesis assay. The conditions noted are these: Balb/c mice, COB223 100 μM injected into sponge, day 7. The format is in vivo. The protocol:
Disc Cellspon cellulose sponges (thickness 2 mm, diameter 10 mm, Cellomeda; Turku, Finland) were implanted under the skin of Balb-c mice under general anesthesia. Mice were divided in three groups receiving either DMSO, FGF-2, or FGF-2 and COB223 (groups of respectively 6, 7 and 8 mice). […] DMSO, FGF-2 and/or COB223 (50 μL) were injected again into the sponges through the skin on day 1 and 2. A third injection of COB223 alone was performed on day 4. On day 7, the vascularization of the sponges was imaged by non-invasive fluorescence imaging after i.p. injection of RAFT-(cRGD)4 (Angiostamp^TM, Fluoptics, Grenoble, France) as described in [9]. The mice were then anesthetized and sacrificed by cervical dislocation on day 7 and the sponges were rapidly excised and photographed. Each sponge was then homogenized in 1 mL RIPA lysis buffer and the supernatants were used for quantification. The extent of vascularization of the sponge implants was assessed by measuring the amount of hemoglobin using the Drabkin's reagent (Sigma).

A further data set deals with PKCβI (Homo sapiens, UniProt P05771). The data set is described as follows: In vitro kinase assay PKCβI. The conditions noted are these: concentrations up to 50 μM. The format is biochemical. On the procedure:
We first wondered whether COB223 required to be internalized to exert its biological effect. For this, we synthesized a covalent complex between BSA and COB223 and purified it. […] In vitro kinase assays were performed with a panel of purified protein-kinases involved in mitogenic signaling, including VEGFR2, FGFR1, FGFR2, PDGFRß, Met, Raf, MEK1, ERK1, ERK2, PKCα, PKCβI, PKCβII, PKCζ as indicated in Table 2. […] We then analyzed the effect of COB223 on VEGF-induced phosphorylations of VEGFR2, MEK and ERK1/2 (Figure 9). […] (Figure 9A, 9B). […] It was also specific of the p42/p44 MAP kinase pathway as activation of p38 MAP kinase phosphorylation in HUVEC cells by VEGF or serum was unaffected by COB223 (data not shown). The activation of src phosphorylation by VEGF in HUVECs was also unaffected by COB223 (data not shown).

As a reminder, the EC50 is the concentration at which the effect is half-maximal. A lower EC50 goes with greater potency. As usually defined, the IC50 is the point on the concentration scale where inhibition reaches its midpoint. A low value points to higher potency.

Some results are limits rather than exact numbers.

Chain of PKCβI (P05771 whole entry): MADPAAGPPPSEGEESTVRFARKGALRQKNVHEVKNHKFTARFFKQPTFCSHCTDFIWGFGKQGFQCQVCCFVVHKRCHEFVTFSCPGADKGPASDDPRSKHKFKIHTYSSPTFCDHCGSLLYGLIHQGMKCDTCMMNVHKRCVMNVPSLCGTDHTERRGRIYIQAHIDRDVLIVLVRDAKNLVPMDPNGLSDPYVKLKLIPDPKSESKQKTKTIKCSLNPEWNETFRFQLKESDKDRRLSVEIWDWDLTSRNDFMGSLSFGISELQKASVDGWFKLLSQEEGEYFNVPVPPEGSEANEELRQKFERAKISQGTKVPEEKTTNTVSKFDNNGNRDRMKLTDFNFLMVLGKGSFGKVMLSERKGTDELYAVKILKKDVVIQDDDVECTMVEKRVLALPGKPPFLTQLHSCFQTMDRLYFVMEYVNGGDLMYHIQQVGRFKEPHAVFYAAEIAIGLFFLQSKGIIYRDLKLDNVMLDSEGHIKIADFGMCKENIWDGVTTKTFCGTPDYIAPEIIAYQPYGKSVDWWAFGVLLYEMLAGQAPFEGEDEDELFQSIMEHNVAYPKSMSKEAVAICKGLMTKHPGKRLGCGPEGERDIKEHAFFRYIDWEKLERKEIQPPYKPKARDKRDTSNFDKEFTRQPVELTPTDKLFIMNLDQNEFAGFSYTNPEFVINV

Turning to `CN(C)c1cccc2c(S(=O)(=O)NCCCN3CCN(CCCNC(=O)OC(C)(C)C)CC3)cccc12` [COB223, tert-Butyl 3-(4-(3-(5-(dimethylamino)naphthalene-1-sulfonamido)propyl)piperazin-1-yl) propylcarbamate], the “activation of src phosphorylation by VEGF” value with src phosphorylation is recorded as “unaffected”. This molecule registered an EC50 with HMEC-GFP cells (as quoted) of 5 µM. Also, the IC50 in the data set on HMEC-GFP cells (wound closure after 24 h, 10% FCS, tested 3.125 μM to 100 μM) was 5 µM. Further, the cytotoxic concentrations in the data set on 3T3 cells was greater than 50 µM. In addition, the “phosphorylation of Raf on residue S338” value in the data set with Raf phosphorylation is reported as “inhibited”. In addition, the “neovascular response to FGF-2 (hemoglobin content and fluorescence imaging)” value in data set [1] was “strong inhibition”. Moreover, on PKCβI, the “kinase inhibition” value was “None of them was inhibited”.
